Each structure is given as a SMILES string.

The record followed here is patent US12648939B2, “Compounds and methods for treating spasticity” (Lexicon Pharmaceuticals, Inc., priority 2022, dated 2026).

Assay [1] has as its system myelin oligodendrocyte glycoprotein (MOG)-induced murine model of experimental autoimmune encephalomyelitis (EAE). The assay can be described thus: Body weight in MOG-induced EAE model. It is filed as in vivo, C57BL/6J mice. The settings on record: throughout the study. The procedure:
(§1) The effect of Compound 1 on spasticity was evaluated in a myelin oligodendrocyte glycoprotein (MOG)-induced murine model of experimental autoimmune encephalomyelitis (EAE), a central nervous system (CNS) autoimmune demyelinating disease that mimics many of the clinical and pathologic features of multiple sclerosis. Gilgun-Sherki Y., et al., Neurosciences Research 47:201-207, 2003.
(§2) Study Design and Results. This study used sixty female young adult (10-11 weeks at study initiation) C57BL/6J mice sourced from Envigo RMS (Israel), Ltd. The animals were divided into five experimental groups:
Each group received a dose volume of 5 ml/kg, and the regimen was performed daily from day 0 to 22 of the study, QD. On study day 21, half of the animals in each group was treated and tested for electrophysiology and electromyography (EMG) two hours post dosing. On study day 22, the same was performed with the remaining half of the animals in each group.
(§3) FIG. 1 provides a representation of the study. Following baseline measurements, the MOG murine model begins with a sensitization period induced by the single subcutaneous (SC) injection of MOG emulsified in Complete Freund's adjuvant (CFA) on Study Day 0, followed by intraperitoneal (IP) supplemental immunostimulation with pertussis toxin (PT) carried out once at the day of EAE induction (study day 0) and once again 48 hours later (on study day 2). […] Mechanical allodynia was tested using the Von Frey test at Baseline and on Day 9 at various timepoints. For evaluation of spasticity, transcranial motor-evoked potentials (tcMEPs) were tested at Baseline and on Days 9 and 21-22 (half of the animals on each day). All animals were administered treatment once daily, starting on Day 0 until Day 22. Animals in Group 1 received oral (PO) treatment with the vehicle. Animals in Group 2 were treated with Fingolimod (FTY720; positive control) at a dose level of 3 mg/kg. PO. Animals in Groups 3 and 4 were treated with the test item Compound 1 at a dose level of 10 mg/kg or 3 mg/kg, PO, respectively. […]

For assay [2] the test system is unchanged. The assay can be described thus: EAE clinical score and AUC. The note with it: 10 mg/kg or 3 mg/kg PO QD. It is filed as in vivo, C57BL/6J mice. How it is done:
as §1, §2
as §3, with “22.” for “22. Animals in Group 1 received oral (PO) treatment with the vehicle. Animals in Group 2 were treated with Fingolimod (FTY720; positive control) at a dose level of 3 mg/kg. PO. Animals in Groups 3 and 4 were treated with the test item Compound 1 at a dose level of 10 mg/kg or 3 mg/kg, PO, respectively.”

The subject of assay [3] is rat model of spasticity induced by complete spinal cord transection. The experiment in a line: Rate-dependent depression (RDD) of the H-reflex in SCI rats. The note with it: for duration of action (H-reflex RDD): recordings up to 6 hours. It counts as in vivo. The procedure:
The efficacy of Compound 1 was measured in a rat model of spasticity induced by complete spinal cord transection. To induce muscle spasticity, a model of complete spinal cord transection cord at the eighth thoracic (T8) vertebral level was used. Five weeks after the Spinal Cord Injury (SCI), the rats were orally (P.O.) treated with Compound 1 (3, 10, or 30 mg/kg), Baclofen (4.5 mg/kg). Tizanidine (3 mg/kg) or vehicles alone (0.9% NaCl, Compound 1 vehicle), and the degree of spasticity response was measured using the rate-dependent depression (RDD) of the Hoffmann's reflex (H-reflex) and spasms induction.
Materials and Methods. […] One hundred and fifty-one SCI rats were maintained up to the end of the 5th post-injury week. One hundred and forty rats were submitted to P.O. administration of the test compounds and EMG analysis.
The rat was firmly restrained to immobilize the head. In an upright position, the gavage needle was passed along the side of the mouth. Following the roof of the mouth, the needle was advanced into the esophagus and toward the stomach. After the needle is passed to the correct length, the compound was slowly injected. The rats were randomly assigned to one of the test groups:
Electroneuromyographical recordings were performed in the right hind limbs before and 1, 2, 3, 4, 5 and 6 hours after P.O. administration.
Electromyographical (EMG) signals were amplified (100×) and bandpass filtered (300 Hz to 5 kHz; A-M Systems Amplifier. Everett, Washington; model 1700) before sampling at 13.5 kHz (Digidata 1440A, Molecular Devices). The tibial nerve was stimulated by using square pulses with increasing stimulus intensities (0.2 mA increments starting from 0.2 mA, 0.2 Hz, 0.2 ms; A-M systems stimulator, Model 2100) to obtain recruitment curves.
RDD of the H-reflex: To induce sedation, intraperitoneal injection of ketamine (100 mg/kg; Imalgen®) was used to suppress voluntary movements and increase muscle tone. Rats thorax and hindlimbs were secured on a heating pad with adhesive tape. The following series of measurements were repeated throughout the experiment: • 1. Hmax and Mmax determination: the tibial nerve was stimulated for 0.2 ms at 0.2 Hz with increasing current intensities (1-6 mA in 0.1 mA increments) until Mmax was stabilized. • 2. RDD measurement: the intensity necessary to obtain a maximal H-reflex was used for trains of 13 stimulations at 0.2, 1, 2 and 5 Hz with 2 min intervals between each train of stimulations. A whole series of measurements lasted about 15 minutes. • 3. Determination of the level of RDD: at the different frequencies, responses to the first three stimulations necessary for the depression to occur were discarded, and all the responses were expressed as percentages relative to the mean response at 0.2 Hz in the same series of measurements.
Data analysis: H-reflex RDDs and areas under the curves (AUC) were determined as a measurement of spasticity and analyzed at each time point and for each frequency with Mann-Whitney test or with Kruskal Wallis one-way analysis of variance (ANOVA) test, followed by Dunn's multiple comparisons test. P<0.05 was considered significant. Significant differences were marked with asterisks (*) according to their respective P-values: values were expressed as the mean value±standard error of the mean (SEM) in all graphs. All statistical analyses were performed using GraphPad Prism 7 (San Diego, California, USA).
Modulation of the RDD of the H-reflex. The Hoffmann reflex was used to assess primary (type 1a) afferents-mediated motoneuronal excitability in rats suffering from spasticity. Electromyograms typically show two responses: an initial M wave (FIG. 6B) resulting from the direct activation of motor axons (FIG. 6A-1), and a delayed H wave (FIG. 6B) resulting from the monosynaptic activation of motoneurons by the afferents (FIG. 6A-2). […]

Assay [4] deals with myelin oligodendrocyte glycoprotein (MOG)-induced murine model of experimental autoimmune encephalomyelitis (EAE). The assay can be described thus: Mechanical allodynia evaluation (Von Frey testing) in EAE model. The settings on record: Day 9; for withdrawal force threshold (Von Frey): 10 mg/kg PO. It counts as in vivo, C57BL/6J mice. The procedure: as §1, §2
FIG. 1 provides a representation of the study. Following baseline measurements, the MOG murine model begins with a sensitization period induced by the single subcutaneous (SC) injection of MOG emulsified in Complete Freund's adjuvant (CFA) on Study Day 0, followed by intraperitoneal (IP) supplemental immunostimulation with pertussis toxin (PT) carried out once at the day of EAE induction (study day 0) and once again 48 hours later (on study day 2). […] Mechanical allodynia was tested using the Von Frey test at Baseline and on Day 9 at various timepoints. For evaluation of spasticity, transcranial motor-evoked potentials (tcMEPs) were tested at Baseline and on Days 9 and 21-22 (half of the animals on each day). All animals were administered treatment once daily, starting on Day 0 until Day 22. Animals in Group 1 received oral (PO) treatment with the vehicle. Animals in Group 2 were treated with Fingolimod (FTY720; positive control) at a dose level of 3 mg/kg. PO. Animals in Groups 3 and 4 were treated with the test item Compound 1 at a dose level of 10 mg/kg or 3 mg/kg, PO, respectively. Animals in Group 5 were treated with Tizanidine at a dose level of 1 mg/kg, IP.
Mechanical Allodynia Evaluation (Von Frey Testing): Animals were tested for mechanical allodynia using the Von Frey test at Baseline, and then on Day 9 at 0.5 hours ([…]), 1.5 hours, 3.5 hours (all groups) and 5.5 hours (Groups 1-4 only) post-dose.

Regarding `CC(C)C[C@](C)(N)COc1ccc(-c2ccnc(C(F)F)c2)nc1C(F)F` [Compound 1, (S)-1-((2′,6-bis(difluoromethyl)-[2,4′-bipyridin]-5-yl)oxy)-2,4-dimethylpentan-2-amine], the “BW compared to vehicle group” value in assay [1] (3 mg/kg PO QD) and in assay [1] (10 mg/kg PO QD) was “not significantly different from the vehicle group” throughout. Moreover, in assay [2], the “clinical score compared to the vehicle” value is recorded as “did not result in a significant reduction”. In addition, in assay [3] (single P.O. 3 mg/kg, SCI rats 5 weeks after injury), the “mean relative amplitudes of the H-reflex (RDD), effect on spasticity” value is “did not appear to affect spasticity”. For the same compound, the “onset of action (H-reflex RDD)” value in assay [3] (single P.O. 10 mg/kg) and in assay [3] (single P.O. 30 mg/kg) was 1 h throughout. Besides, the “mean relative amplitudes of the H-reflex (RDD)” value is reported as “significantly reduced” in assay [3] (single P.O. 10 mg/kg, SCI rats 5 weeks after injury) and “significantly reduced” in assay [3] (single P.O. 30 mg/kg, SCI rats 5 weeks after injury). The results for the “duration of action (H-reflex RDD)” value in assay [3] (single P.O. 10 mg/kg) and in assay [3] (single P.O. 30 mg/kg) were “at least 6 hour” and “at least 6 hours”, respectively. The “withdrawal force threshold compared to the vehicle-treated group” value in assay [4] (3 mg/kg PO, all timepoints post dosing) is recorded as “higher withdrawal force threshold compared to the vehicle-treated group”. For the same compound, the “withdrawal force threshold (Von Frey)” value in assay [4] (1.5 hours post dosing, vehicle 0.89±0.11 g) was determined as 1.48 ± 0.10 g; in assay [4] (3.5 hours post dosing, vehicle 0.78±0.06 g), 1.36 ± 0.09 g; in assay [4] (5.5 hours post dosing, vehicle 0.82±0.08 g), 1.52 ± 0.13 g.
